Measured values reported in ChEMBL document CHEMBL1687697 (ACS Med Chem Lett, 2010).
Active and inactive are the calls of the source. The calls are words filed in the database; no cut-off is given here.

How the values were obtained:
[1] = biological target: Signal transducer and activator of transcription 3 (Homo sapiens) (UniProt P40763); assay: Inhibition of STAT3 in human HeLa cells at 5 uM after 24 hrs by luciferase reporter gene assay; type: cell-based
[2] = biological target: Signal transducer and activator of transcription 3 (Homo sapiens) (UniProt P40763); assay: Inhibition of STAT3 phosphorylation at Tyr705 in human DU145 cells after 24 hrs by Western blot analysis; type: cell-based; settings: DU-145
[3] = biological target: Signal transducer and activator of transcription 3 (Homo sapiens) (UniProt P40763); assay: Inhibition of STAT3 phosphorylation Ser727 in human DU145 cells after 24 hrs by Western blot analysis; type: cell-based; settings: DU-145
[4] = biological target: Signal transducer and activator of transcription 1-alpha/beta (Homo sapiens) (UniProt P42224); assay: Inhibition of STAT1 phosphorylation at Tyr701 after 2 hrs by Western blot analysis
[5] = biological target: Signal transducer and activator of transcription 5A (Homo sapiens) (UniProt P42229); assay: Inhibition of STAT5 phosphorylation at Tyr694 after 2 hrs by Western blot analysis
DU-145 [6] = assay: Effect on JAK1 protein level in human DU145 cells at 0.1 to 2 uM after 2 hrs by Western blot analysis; type: functional, cell-based
DU-145 [7] = assay: Effect on JAK1 protein level in human DU145 cells at 0.1 to 2 uM after 24 hrs by Western blot analysis; type: functional, cell-based
DU-145 [8] = assay: Effect on phosphorylated JAK1 protein level in human DU145 cells at 0.1 to 2 uM after 2 hrs by Western blot analysis; type: functional, cell-based
DU-145 [9] = assay: Effect on phosphorylated JAK1 protein level in human DU145 cells at 0.1 to 2 uM after 24 hrs by Western blot analysis; type: functional, cell-based
DU-145 [10] = assay: Effect on JAK2 protein level in human DU145 cells at 0.1 to 2 uM after 2 hrs by Western blot analysis; type: functional, cell-based
DU-145 [11] = assay: Effect on JAK2 protein level in human DU145 cells at 0.1 to 2 uM after 24 hrs by Western blot analysis; type: functional, cell-based
DU-145 [12] = assay: Effect on phosphorylated-JAK2 protein level in human DU145 cells at 0.1 to 2 uM after 2 hrs by Western blot analysis; type: functional, cell-based
DU-145 [13] = assay: Effect on phosphorylated-JAK2 protein level in human DU145 cells at 0.1 to 2 uM after 24 hrs by Western blot analysis; type: functional, cell-based
DU-145 [14] = assay: Effect on Src protein level in human DU145 cells at 0.1 to 2 uM after 2 hrs by Western blot analysis; type: functional, cell-based
DU-145 [15] = assay: Effect on Src protein level in human DU145 cells at 0.1 to 2 uM after 24 hrs by Western blot analysis; type: functional, cell-based
DU-145 [16] = assay: Effect on Tyr416 phosphorylated-Src protein level in human DU145 cells at 0.1 to 2 uM after 2 hrs by Western blot analysis; type: functional, cell-based
DU-145 [17] = assay: Effect on Tyr416 phosphorylated-Src protein level in human DU145 cells at 0.1 to 2 uM after 24 hrs by Western blot analysis; type: functional, cell-based
DU-145 [18] = assay: Effect on […] phosphorylated-Src protein level in human DU145 cells at 0.1 to 2 uM after 2 hrs by Western blot analysis; type: functional, cell-based
DU-145 [19] = assay: Effect on Tyr527 phosphorylated-Src protein level in human DU145 cells at 0.1 to 2 uM after 24 hrs by Western blot analysis; type: functional, cell-based
[20] = biological target: Signal transducer and activator of transcription 3 (Homo sapiens) (UniProt P40763); assay: Inhibition of STAT3 nuclear translocation in EGF stimulated human DU145 cells at 1 uM administered before 100 ng/ml EGF stimulation measured after 2 hrs by confocal laser microscopy; type: cell-based; settings: DU-145
[21] = biological target: Signal transducer and activator of transcription 3 (Homo sapiens) (UniProt P40763); assay: Inhibition of STAT3 interaction with DNA binding site in human DU145 cells at 05 to 10 uM after 2 hrs by EMSA; type: cell-based; settings: DU-145
DU-145 [22] = assay: Decrease in cyclin D1 protein level in human DU145 cells at 0.1 to 2 uM after 2 hrs by Western blot analysis; type: functional, cell-based
DU-145 [23] = assay: Decrease in c-Myc protein level in human DU145 cells at 0.1 to 2 uM after 2 hrs by Western blot analysis; type: functional, cell-based
DU-145 [24] = assay: Decrease in Bcl-Xl protein level in human DU145 cells at 0.1 to 2 uM after 2 hrs by Western blot analysis; type: functional, cell-based
DU-145 [25] = assay: Downregulation of Mcl-1 protein in human DU145 cells at 0.1 to 2 uM after 2 hrs by Western blot analysis; type: functional, cell-based
HeLa = assay: Antiproliferative activity against human HeLa cells after 72 hrs by MTT assay; type: functional, cell-based
A549 = assay: Antiproliferative activity against human A549 cells after 72 hrs by MTT assay; type: functional, cell-based; settings: A549, 72 h
DU-145 [26] = assay: Antiproliferative activity against human DU145 cells after 72 hrs by MTT assay; type: functional, cell-based; settings: DU-145, 72 h
HT-29 = assay: Antiproliferative activity against human HT-29 cells after 72 hrs by MTT assay; type: functional, cell-based; settings: HT-29, 72 h
A-431 = assay: Antiproliferative activity against human A431 cells after 72 hrs by MTT assay; type: functional, cell-based; settings: A-431, 72 h
PC-3 = assay: Antiproliferative activity against human PC3 cells after 72 hrs by MTT assay; type: functional, cell-based; settings: PC-3, 72 h
DU-145 [27] = assay: Growth inhibition of human DU145 cells assessed as inhibition of colony formation after 11 to 12 days by crystal violet staining based microscopic analysis; type: functional, cell-based
DU-145 [28] = assay: Cell cycle arrest in human DU145 cells assessed as accumulation in G0/G1 phase at 0.2 uM after 24 hrs by FACS flow cytometry; type: functional
DU-145 [29] = assay: Cell cycle arrest in human DU145 cells assessed as accumulation in S phase at 0.2 uM after 24 hrs by FACS flow cytometry; type: functional
DU-145 [30] = assay: Cell cycle arrest in human DU145 cells assessed as accumulation in G2/M phase at 0.2 uM after 24 hrs by FACS flow cytometry; type: functional
DU-145 [31] = assay: Cell cycle arrest in human DU145 cells assessed as accumulation in G0/G1 phase at 0.5 uM after 24 hrs by FACS flow cytometry; type: functional

Signal transducer and activator of transcription 3 (Homo sapiens), sequence (P40763 whole entry): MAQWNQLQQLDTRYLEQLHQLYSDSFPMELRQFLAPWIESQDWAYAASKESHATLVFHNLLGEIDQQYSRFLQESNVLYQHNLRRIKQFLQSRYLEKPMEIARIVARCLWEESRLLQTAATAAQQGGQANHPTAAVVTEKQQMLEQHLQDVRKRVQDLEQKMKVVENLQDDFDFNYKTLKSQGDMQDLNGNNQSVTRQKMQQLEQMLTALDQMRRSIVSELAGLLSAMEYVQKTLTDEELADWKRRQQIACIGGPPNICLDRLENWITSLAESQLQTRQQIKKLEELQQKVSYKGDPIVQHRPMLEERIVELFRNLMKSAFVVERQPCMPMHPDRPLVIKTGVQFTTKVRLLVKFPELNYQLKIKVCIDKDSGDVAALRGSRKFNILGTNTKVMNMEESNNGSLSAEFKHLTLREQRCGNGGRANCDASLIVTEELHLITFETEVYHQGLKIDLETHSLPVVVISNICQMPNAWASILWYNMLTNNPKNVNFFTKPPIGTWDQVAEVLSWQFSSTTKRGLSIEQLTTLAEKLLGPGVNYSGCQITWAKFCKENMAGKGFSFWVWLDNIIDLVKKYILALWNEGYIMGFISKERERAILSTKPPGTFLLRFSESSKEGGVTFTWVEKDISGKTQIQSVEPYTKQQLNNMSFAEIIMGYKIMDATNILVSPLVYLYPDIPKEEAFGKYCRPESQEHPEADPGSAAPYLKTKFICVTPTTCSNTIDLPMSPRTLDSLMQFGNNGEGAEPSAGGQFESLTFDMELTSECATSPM
Signal transducer and activator of transcription 5A (Homo sapiens), sequence (P42229 whole entry): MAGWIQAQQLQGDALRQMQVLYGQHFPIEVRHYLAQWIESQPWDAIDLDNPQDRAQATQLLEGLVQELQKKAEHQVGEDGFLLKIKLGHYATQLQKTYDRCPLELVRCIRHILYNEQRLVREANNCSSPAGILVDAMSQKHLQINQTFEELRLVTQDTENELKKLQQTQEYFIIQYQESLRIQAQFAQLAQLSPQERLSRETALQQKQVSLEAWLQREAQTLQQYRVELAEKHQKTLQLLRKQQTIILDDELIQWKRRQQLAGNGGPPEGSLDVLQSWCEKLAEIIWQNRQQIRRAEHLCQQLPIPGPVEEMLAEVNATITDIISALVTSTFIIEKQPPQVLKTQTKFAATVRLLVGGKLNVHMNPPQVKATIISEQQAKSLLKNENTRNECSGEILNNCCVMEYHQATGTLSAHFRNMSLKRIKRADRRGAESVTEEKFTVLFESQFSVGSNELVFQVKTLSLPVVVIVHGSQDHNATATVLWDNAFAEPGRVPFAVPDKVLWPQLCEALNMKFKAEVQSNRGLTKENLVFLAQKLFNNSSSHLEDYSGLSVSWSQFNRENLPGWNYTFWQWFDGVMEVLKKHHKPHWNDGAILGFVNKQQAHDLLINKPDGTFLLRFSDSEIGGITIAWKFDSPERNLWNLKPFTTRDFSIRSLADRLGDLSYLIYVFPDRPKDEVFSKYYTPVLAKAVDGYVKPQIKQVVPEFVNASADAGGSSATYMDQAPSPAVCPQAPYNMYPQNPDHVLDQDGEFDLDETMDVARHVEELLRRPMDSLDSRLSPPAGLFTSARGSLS
Signal transducer and activator of transcription 1-alpha/beta (Homo sapiens), sequence (P42224 whole entry): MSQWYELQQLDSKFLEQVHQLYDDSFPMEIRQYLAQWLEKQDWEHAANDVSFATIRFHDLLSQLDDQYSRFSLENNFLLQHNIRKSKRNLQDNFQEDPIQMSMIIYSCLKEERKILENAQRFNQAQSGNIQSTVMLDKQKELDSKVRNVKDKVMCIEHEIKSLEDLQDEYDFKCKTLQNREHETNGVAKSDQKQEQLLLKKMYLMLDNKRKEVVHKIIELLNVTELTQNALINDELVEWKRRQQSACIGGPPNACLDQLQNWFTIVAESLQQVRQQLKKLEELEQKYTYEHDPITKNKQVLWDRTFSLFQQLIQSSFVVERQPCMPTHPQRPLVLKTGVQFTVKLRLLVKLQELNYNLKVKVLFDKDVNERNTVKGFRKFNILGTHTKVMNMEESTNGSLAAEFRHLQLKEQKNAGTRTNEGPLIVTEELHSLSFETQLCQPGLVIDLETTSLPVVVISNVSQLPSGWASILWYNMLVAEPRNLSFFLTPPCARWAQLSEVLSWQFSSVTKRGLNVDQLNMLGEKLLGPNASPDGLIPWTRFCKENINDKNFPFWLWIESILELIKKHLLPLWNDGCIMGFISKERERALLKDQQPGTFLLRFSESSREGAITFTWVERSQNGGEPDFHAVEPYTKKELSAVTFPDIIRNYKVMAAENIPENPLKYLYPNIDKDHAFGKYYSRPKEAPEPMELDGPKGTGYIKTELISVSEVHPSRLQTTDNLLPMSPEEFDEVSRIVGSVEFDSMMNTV

Structure (SMILES): O=C(Nc1ccc([N+](=O)[O-])cc1Cl)c1cc(Cl)ccc1O [NICLOSAMIDE]
- inhibition [1]: Active
- inhibition [2]: Dose-dependent effect
- inhibition [3]: inactive
- inhibition [4]: inactive
- inhibition [5]: inactive
- Activity (DU-145 [6]): inactive
- Activity (DU-145 [7]): inactive
- Activity (DU-145 [8]): inactive
- Activity (DU-145 [9]): inactive
- Activity (DU-145 [10]): inactive
- Activity (DU-145 [11]): inactive
- Activity (DU-145 [12]): inactive
- Activity (DU-145 [13]): inactive
- Activity (DU-145 [14]): inactive
- Activity (DU-145 [15]): inactive
- Activity (DU-145 [16]): inactive
- Activity (DU-145 [17]): inactive
- Activity (DU-145 [18]): inactive
- Activity (DU-145 [19]): inactive
- inhibition [20]: Active
- inhibition [21]: Active
- Activity (DU-145 [22]): Active
- Activity (DU-145 [23]): Active
- Activity (DU-145 [24]): Active
- Activity (DU-145 [25]): Active
- IC50 (HeLa): 1400 nM
- IC50 (A549): 3000 nM
- IC50 (DU-145 [26]): 700 nM
- IC50 (HT-29): 7200 nM
- IC50 (A-431): 8800 nM
- IC50 (PC-3): 11700 nM
- IC50 (DU-145 [27]): 700 nM
- Activity (DU-145 [28]): 48.4%
- Activity (DU-145 [29]): 38.4%
- Activity (DU-145 [30]): 13.11%
- Activity (DU-145 [31]): 57.4%
